In patent publication EP2998289B1, “COMPOUNDS FOR TARGETING DRUG DELIVERY AND ENHANCING SIRNA ACTIVITY” (NITTO DENKO CORPORATION, priority 2011, dated 2012):

What was measured:
gp46 [1] = assay: in vivo efficacy, rat DMNQ short-term liver damage model (liver gp46 mRNA)
gp46 [2] = assay: pHSC in vitro assay: gp46/HSP47 mRNA knockdown by siRNA formulations, qRT-PCR; details: for in vitro (pHSC) % KD: @ 50 nM, label = cationic lipid of the formulation, 2880 min; for in vitro (pHSC) EC50 or % KD: % KD @ 50 nM, 20:20 HEDC:S104 with 2% conjugate
[3] = @ 0.75 mpk, 20:20 HEDC:S104 with 2% retinoid conjugate

Compound | in vitro (pHSC) % KD (gp46 [2]) | also measured
CC1=C(/C=C/C(C)=C/C=C/C(C)=C/C(=O)NCCCC[C@H](NC(=O)/C=C(C)/C=C/C=C(C)/C=C/C2=C(C)CCCC2(C)C)C(=O)NCCCOCCOCCOCCCNC(=O)CCOCCOCCOCCOCCOCCC(=O)NCCCOCCOCCOCCCNC(=O)[C@H](CCCCNC(=O)/C=C(C)/C=C/C=C(C)/C=C/C2=C(C)CCCC2(C)C)NC(=O)/C=C(C)/C=C/C=C(C)/C=C/C2=C(C)CCCC2(C)C)C(C)(C)CCC1 [DiVA, N1,N19-bis((S,23E,25E,27E,29E)-16-((2E,4E,6E,8E)-3,7-dimethyl-9-(2,6,6-trimethylcyclohex-1-en-1-yl)nona-2,4,6,8-tetraenamido)-24,28-dimethyl-15,22-dioxo-30-(2,6,6-trimethylcyclohex-1-en-1-yl)-4,7,10-trioxa-14,21-diazatriaconta-23,25,27,29-tetraen-1-yl)-4,7,10,13,16-pentaoxanonadecane-1,19-diamide] | – | in vivo (rat DMNQ) % KD (gp46 [1]; [3]): 60% @ 0.75 mpk; inhibition at 0.05 µM (gp46 [2]; Rattus norvegicus, read-out: in vitro (pHSC) EC50 or % KD): 74%
CCCCCCCCCCCCCC(=O)OCCN(CCOC(=O)CCCCCCCCCCCCC)C(=O)C[N+](C)(C)CCO.[Br-] [HEDC, 2-(bis(2-(tetradecanoyloxy)ethyl)amino)-N-(2-hydroxyethyl)-N,N-dimethyl-2-oxoethanaminium bromide] | 68% @ 50 nM | in vivo (rat DMNQ) % KD (gp46 [1]; @ 0.5 mpk, label = cationic lipid of the formulation): 52% @ 0.5 mpk
CCCCCCCC/C=C\CCCCCCCC(=O)OCCCN(CCCOC(=O)CCCCCCC/C=C\CCCCCCCC)C(=O)C[N+](C)(C)CCO.[Br-] [Pr-HE-DODC, 2-(bis(3-(oleoyloxy)propyl)amino)-N-(2-hydroxyethyl)-N,N-dimethyl-2-oxoethanaminium bromide] | 73% @ 50 nM | –
CCCCCCCCCCCCCC(=O)OCCN(CCOC(=O)CCCCCCCCCCCCC)C(=O)CCC[N+](C)(C)CCO.[Br-] [HE-Pr-DC, 4-(bis(2-(tetradecanoyloxy)ethyl)amino)-N-(2-hydroxyethyl)-N,N-dimethyl-4-oxobutan-1-aminium bromide] | 47% @ 50 nM | –
CCCCCCCC/C=C\CCCCCCCC(=O)OCCN(CCOC(=O)CCCCCCC/C=C\CCCCCCCC)C(=O)CC[N+](C)(C)CCO.[Br-] [HE-Et-DODC, 3-(bis(2-(oleoyloxy)ethyl)amino)-N-(2-hydroxyethyl)-N,N-dimethyl-3-oxopropan-1-aminium bromide] | 71% @ 50 nM | –
CCCCCCCCCCCCCC(=O)OCCN(CCOC(=O)CCCCCCCCCCCCC)C(=O)CC[N+](C)(C)CCO.[Br-] [HE-Et-DC, 3-(bis(2-(tetradecanoyloxy)ethyl)amino)-N-(2-hydroxyethyl)-N,N-dimethyl-3-oxopropan-1-aminium bromide] | 70% @ 50 nM | –
CCCCCCCC/C=C\CCCCCCCC(=O)OCCN(CCOC(=O)CCCCCCC/C=C\CCCCCCCC)C(=O)C[N+](C)(CCO)CCO.[Br-] [HE2DODC, 2-(bis(2-(oleoyloxy)ethyl)amino)-N,N-bis(2-hydroxyethyl)-N-methyl-2-oxoethanaminium bromide] | 78% @ 50 nM | –
N1,N19-bis((R)-1,8-dioxo-7-(4-((E)-2-(5,5,8,8-tetramethyl-5,6,7,8-tetrahydro-naphthalen-2-yl)prop-1-en-1-yl)benzamido)-1-(4-((E)-2-(5,5,8,8-tetramethyl-5,6,7,8-tetrahydronaphthalen-2-yl)prop-1-en-1-yl)phenyl)-13,16,19-trioxa-2,9-diazadocosan-22-yl)-4,7,10,13,16-pentaoxanonadecane-1,19-diamide [Example 4TTNPB] | – | in vitro (pHSC) EC50 or % KD (gp46 [2]): 34% @ 50 nM
CCCCCCCCCCCCCC(=O)NCCCC[C@@H](NC(=O)CCCCCCCCCCCCC)C(=O)NCCCOCCOCCOCCCNC(=O)CCOCCOCCOCCOCCOCCC(=O)NCCCOCCOCCOCCCNC(=O)[C@@H](CCCCNC(=O)CCCCCCCCCCCCC)NC(=O)CCCCCCCCCCCCC [Example 4Myr, N1,N19-bis((R)-15,22-dioxo-16-tetradecanamido-4,7,10-trioxa-14,21-diazapenta-triacontyl)-4,7,10,13,16-pentaoxanonadecane-1,19-diamide] | – | in vitro (pHSC) EC50 or % KD (gp46 [2]): 27% @ 50 nM
N1,N19-bis((16S)-16-(3,7-dimethyl-9-(2,6,6-trimethylcyclohex-1-en-1-yl)nonanamido)-24,28-dimethyl-15,22-dioxo-30-(2,6,6-trimethylcyclohex-1-en-1-yl)-4,7,10-trioxa-14,21-diazatriacontyl)-4,7,10,13,16-pentaoxanonadecane-1,19-diamide [satDiVA] | – | in vivo (rat DMNQ) % KD (gp46 [1]; [3]): 74% @ 0.75 mpk; in vitro (pHSC) EC50 or % KD (gp46 [2]): 73% @ 50 nM
CCCCCCCC/C=C\CCCCCCCC(=O)OCCN(CCOC(=O)CCCCCCC/C=C\CCCCCCCC)C(=O)CCC[N+](C)(C)CCO.[Br-] [HE-Pr-DODC, 4-(bis(2-(oleoyloxy)ethyl)amino)-N-(2-hydroxyethyl)-N,N-dimethyl-4-oxobutan-1-aminium bromide] | 75% @ 50 nM | –
CCCCCCCCCCCCCC(=O)OCCCN(CCCOC(=O)CCCCCCCCCCCCC)C(=O)C[N+](C)(C)CCO.[Br-] [Pr-HEDC, 2-(bis(3-(tetradecanoyloxy)propyl)amino)-N-(2-hydroxyethyl)-N,N-dimethyl-2-oxoethanaminium bromide] | 75% @ 50 nM | –
